Patent US11000033B2, “Ketone or oxime compound, and herbicide” (NISSAN CHEMICAL CORPORATION, priority 2014, dated 2021)

Key:
Type in all cases: in vivo
Chenopodium album = assay: Test Example 5: herbicidal effect by foliage application, plastic box (symbol O); details: 320 g/ha, 3 weeks after application
Summary of the method: (§1)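 Greenhouse foliar test: seedlings at 14 days, grown 25° C. to 30° C. in sterilized diluvial soil; compound applied as an aqueous dilution of an emulsion; response read 3 weeks after spraying.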

wheat = assay: Test Example 4: effect on crop by soil treatment (symbol e); details: application herbicide amount 320 g/ha
Summary of the method: (§2)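 Soil-treatment setup: crop and weed seeds were spot-sown into sterilized diluvial soil, then buried beneath approximately 1.5 cm of it, and the boxes were housed in a 25–30° C. greenhouse.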

rapeseed = assay: Test Example 4: effect on crop by soil treatment (symbol g); details: application herbicide amount 320 g/ha
Summary of the method: as §2

beet [1] = assay: Test Example 4: effect on crop by soil treatment (symbol f); details: application herbicide amount 320 g/ha
Summary of the method: as §2

Setaria viridis = assay: Test Example 5: herbicidal effect by foliage application, plastic box (symbol G); details: 320 g/ha, 3 weeks after application
Summary of the method: as §1

Veronica persica = assay: Test Example 5: herbicidal effect by foliage application, plastic box (symbol R); details: 320 g/ha, 3 weeks after application
Summary of the method: as §1

[2] = tested on: Echinochloa crus-galli var. crus-galli; assay: Test Example 4: herbicidal effect by soil treatment (symbol H); details: application herbicide amount 320 g/ha
Summary of the method: (§3)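 Seeds were sown in sterilized diluvial soil, covered with about 1.5 cm of soil, and the soil surface was sprayed with a water-diluted emulsion of the compound at a predetermined rate. Plants grew in a greenhouse at 25° C. to 30° C.; effects were scored visually 3 weeks after application.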

Avena fatua [3] = assay: Test Example 5: herbicidal effect by foliage application, plastic box (symbol I); details: 320 g/ha, 3 weeks after application
Summary of the method: as §1

Apera spica-venti [4] = assay: Test Example 5: herbicidal effect by foliage application, plastic box (symbol L); details: 320 g/ha, 3 weeks after application
Summary of the method: as §1

Amaranthus retroflexus = assay: Test Example 4: herbicidal effect by soil treatment (symbol N); details: application herbicide amount 320 g/ha
Summary of the method: as §3

Scirpus juncoides [5] = assay: Test Example 1: herbicidal activity, application before weed generation in submerged conditions (symbol B); details: application herbicide amount 320 g/ha
Summary of the method: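 Greenhouse growth at 25–30 °C lasted 3 weeks after treatment, when each weed was graded 0–5 by herbicidal ratio. Treatment was a diluted emulsion applied to the water surface of 4 cm-submerged alluvial soil on the sowing day.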

Scirpus juncoides [6] = assay: Test Example 2: herbicidal activity, application during weed generation in submerged conditions (symbol B); details: Table 23; application herbicide amount 320 g/ha; grade 0-5 by criteria of Test Example 1
Summary of the method: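 Weeds emerging under flooded conditions were treated with compound formulated as an emulsion and diluted with water to the intended herbicide amount, poured onto the surface of 4 cm standing water. Seeds had been co-sown in alluvial soil; plants grew at 25° C. to 30° C. and were assessed after 3 weeks.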

Galium spurium [7] = assay: Test Example 5: herbicidal effect by foliage application, plastic box (symbol Q); details: 320 g/ha, 3 weeks after application
Summary of the method: as §1

Avena fatua [8] = assay: Test Example 4: herbicidal effect by soil treatment (symbol I); details: application herbicide amount 320 g/ha
Summary of the method: as §3

Galium spurium [9] = assay: Test Example 4: herbicidal effect by soil treatment (symbol Q); details: application herbicide amount 320 g/ha
Summary of the method: as §3

soybean = assay: Test Example 5: effect on crop by foliage application, plastic box (symbol d); details: 320 g/ha, 3 weeks after application
Summary of the method: (§4)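 Crop seed is sown alongside grass and broadleaf weed species in spots in sterilized diluvial soil, then covered to a depth of about 1.5 cm. Plants grow in a greenhouse kept at 25° C. to 30° C.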

beet [10] = assay: Test Example 5: effect on crop by foliage application, plastic box (symbol f); details: 320 g/ha, 3 weeks after application
Summary of the method: as §4

Apera spica-venti [11] = assay: Test Example 4: herbicidal effect by soil treatment (symbol L); details: application herbicide amount 320 g/ha
Summary of the method: as §3

CON=C(C)CC1CC(OC(=O)N2CCOCC2)=C(c2c(C)cc(C)cc2OC)C1=O (centres unmarked) [6-094]
O: Chenopodium album, herbicidal effect (criteria of Test Example 1) (Chenopodium album): 5 (Herbicidal ratio of 90% or more (almost completely withered))
Effect on crop grade, e: wheat (wheat): 0 (Herbicidal ratio of 5% or lower (almost no effect))
Effect on crop grade, g: rapeseed (rapeseed): 4 (Herbicidal ratio of 70% or higher and lower than 90%)
Effect on crop grade, f: beet (beet [1]): 0 (Herbicidal ratio of 5% or lower (almost no effect))
G: Setaria viridis, herbicidal effect (criteria of Test Example 1) (Setaria viridis): 5 (Herbicidal ratio of 90% or more (almost completely withered))
R: Veronica persica, herbicidal effect (criteria of Test Example 1) (Veronica persica): 4 (Herbicidal ratio of 70% or higher and lower than 90%)
Herbicidal effect grade, H: Echinochloa crus-galli var. crus-galli [2]: 5 (Herbicidal ratio of 90% or more (almost completely withered))
I: Avena fatua, herbicidal effect (criteria of Test Example 1) (Avena fatua [3]): 5 (Herbicidal ratio of 90% or more (almost completely withered))
L: Apera spica-venti, herbicidal effect (criteria of Test Example 1) (Apera spica-venti [4]): 5 (Herbicidal ratio of 90% or more (almost completely withered))
Herbicidal effect grade, N: Amaranthus retroflexus (Amaranthus retroflexus): 0 (Herbicidal ratio of 5% or lower (almost no effect))
Herbicidal effect grade, B: Scirpus juncoides (Scirpus juncoides [5]): 5 (Herbicidal ratio of 90% or more (almost completely withered))
Herbicidal effect grade, B: Scirpus juncoides (Scirpus juncoides [6]): 2 (Herbicidal ratio of 20% or higher and lower than 40%)
Q: Galium spurium, herbicidal effect (criteria of Test Example 1) (Galium spurium [7]): 5 (Herbicidal ratio of 90% or more (almost completely withered))
Herbicidal effect grade, I: Avena fatua (Avena fatua [8]): 5 (Herbicidal ratio of 90% or more (almost completely withered))
Herbicidal effect grade, Q: Galium spurium (Galium spurium [9]): 0 (Herbicidal ratio of 5% or lower (almost no effect))
d: soybean, effect on crop (criteria of Test Example 1) (soybean): 4 (Herbicidal ratio of 70% or higher and lower than 90%)

CON=C(C)CC1CC(O)=C(c2c(F)cc(-c3ccccc3)cc2OC)C1=O (centres unmarked) [6-107]
O: Chenopodium album, herbicidal effect (criteria of Test Example 1) (Chenopodium album): 4 (Herbicidal ratio of 70% or higher and lower than 90%)
Effect on crop grade, e: wheat (wheat): 4 (Herbicidal ratio of 70% or higher and lower than 90%)
Effect on crop grade, g: rapeseed (rapeseed): 4 (Herbicidal ratio of 70% or higher and lower than 90%)
f: beet, effect on crop (criteria of Test Example 1) (beet [10]): 2 (Herbicidal ratio of 20% or higher and lower than 40%)
Effect on crop grade, f: beet (beet [1]): 1 (Herbicidal ratio of 5% or higher and lower than 20%)
G: Setaria viridis, herbicidal effect (criteria of Test Example 1) (Setaria viridis): 5 (Herbicidal ratio of 90% or more (almost completely withered))
R: Veronica persica, herbicidal effect (criteria of Test Example 1) (Veronica persica): 4 (Herbicidal ratio of 70% or higher and lower than 90%)
Herbicidal effect grade, H: Echinochloa crus-galli var. crus-galli [2]: 5 (Herbicidal ratio of 90% or more (almost completely withered))
I: Avena fatua, herbicidal effect (criteria of Test Example 1) (Avena fatua [3]): 5 (Herbicidal ratio of 90% or more (almost completely withered))
L: Apera spica-venti, herbicidal effect (criteria of Test Example 1) (Apera spica-venti [4]): 5 (Herbicidal ratio of 90% or more (almost completely withered))
Herbicidal effect grade, B: Scirpus juncoides (Scirpus juncoides [5]): 5 (Herbicidal ratio of 90% or more (almost completely withered))
Herbicidal effect grade, B: Scirpus juncoides (Scirpus juncoides [6]): 5 (Herbicidal ratio of 90% or more (almost completely withered))
Q: Galium spurium, herbicidal effect (criteria of Test Example 1) (Galium spurium [7]): 5 (Herbicidal ratio of 90% or more (almost completely withered))
Herbicidal effect grade, I: Avena fatua (Avena fatua [8]): 3 (Herbicidal ratio of 40% or higher and lower than 70%)
Herbicidal effect grade, Q: Galium spurium (Galium spurium [9]): 2 (Herbicidal ratio of 20% or higher and lower than 40%)
d: soybean, effect on crop (criteria of Test Example 1) (soybean): 1 (Herbicidal ratio of 5% or higher and lower than 20%)

CC(=O)CC1CC(O)=C(c2c(C)cc(-c3ccccn3)cc2C)C1=O (centres unmarked) [7-012]
O: Chenopodium album, herbicidal effect (criteria of Test Example 1) (Chenopodium album): 3 (Herbicidal ratio of 40% or higher and lower than 70%)
Effect on crop grade, e: wheat (wheat): 0 (Herbicidal ratio of 5% or lower (almost no effect))
Effect on crop grade, g: rapeseed (rapeseed): 0 (Herbicidal ratio of 5% or lower (almost no effect))
f: beet, effect on crop (criteria of Test Example 1) (beet [10]): 0 (Herbicidal ratio of 5% or lower (almost no effect))
Effect on crop grade, f: beet (beet [1]): 0 (Herbicidal ratio of 5% or lower (almost no effect))
G: Setaria viridis, herbicidal effect (criteria of Test Example 1) (Setaria viridis): 5 (Herbicidal ratio of 90% or more (almost completely withered))
R: Veronica persica, herbicidal effect (criteria of Test Example 1) (Veronica persica): 2 (Herbicidal ratio of 20% or higher and lower than 40%)
Herbicidal effect grade, H: Echinochloa crus-galli var. crus-galli [2]: 5 (Herbicidal ratio of 90% or more (almost completely withered))
I: Avena fatua, herbicidal effect (criteria of Test Example 1) (Avena fatua [3]): 1 (Herbicidal ratio of 5% or higher and lower than 20%)
L: Apera spica-venti, herbicidal effect (criteria of Test Example 1) (Apera spica-venti [4]): 0 (Herbicidal ratio of 5% or lower (almost no effect))
Herbicidal effect grade, N: Amaranthus retroflexus (Amaranthus retroflexus): 0 (Herbicidal ratio of 5% or lower (almost no effect))
Herbicidal effect grade, B: Scirpus juncoides (Scirpus juncoides [5]): 0 (Herbicidal ratio of 5% or lower (almost no effect))
Herbicidal effect grade, B: Scirpus juncoides (Scirpus juncoides [6]): 0 (Herbicidal ratio of 5% or lower (almost no effect))
Herbicidal effect grade, L: Apera spica-venti (Apera spica-venti [11]): 0 (Herbicidal ratio of 5% or lower (almost no effect))
Herbicidal effect grade, I: Avena fatua (Avena fatua [8]): 0 (Herbicidal ratio of 5% or lower (almost no effect))
Herbicidal effect grade, Q: Galium spurium (Galium spurium [9]): 0 (Herbicidal ratio of 5% or lower (almost no effect))
d: soybean, effect on crop (criteria of Test Example 1) (soybean): 2 (Herbicidal ratio of 20% or higher and lower than 40%)

CC(=O)CC1CC(O)=C(c2c(C)cc(OCC(F)(F)F)cc2C)C1=O (centres unmarked) [7-015]
O: Chenopodium album, herbicidal effect (criteria of Test Example 1) (Chenopodium album): 3 (Herbicidal ratio of 40% or higher and lower than 70%)
Effect on crop grade, e: wheat (wheat): 4 (Herbicidal ratio of 70% or higher and lower than 90%)
Effect on crop grade, g: rapeseed (rapeseed): 2 (Herbicidal ratio of 20% or higher and lower than 40%)
f: beet, effect on crop (criteria of Test Example 1) (beet [10]): 0 (Herbicidal ratio of 5% or lower (almost no effect))
Effect on crop grade, f: beet (beet [1]): 0 (Herbicidal ratio of 5% or lower (almost no effect))
G: Setaria viridis, herbicidal effect (criteria of Test Example 1) (Setaria viridis): 5 (Herbicidal ratio of 90% or more (almost completely withered))
R: Veronica persica, herbicidal effect (criteria of Test Example 1) (Veronica persica): 4 (Herbicidal ratio of 70% or higher and lower than 90%)
Herbicidal effect grade, H: Echinochloa crus-galli var. crus-galli [2]: 5 (Herbicidal ratio of 90% or more (almost completely withered))
I: Avena fatua, herbicidal effect (criteria of Test Example 1) (Avena fatua [3]): 5 (Herbicidal ratio of 90% or more (almost completely withered))
L: Apera spica-venti, herbicidal effect (criteria of Test Example 1) (Apera spica-venti [4]): 5 (Herbicidal ratio of 90% or more (almost completely withered))
Herbicidal effect grade, N: Amaranthus retroflexus (Amaranthus retroflexus): 0 (Herbicidal ratio of 5% or lower (almost no effect))
Herbicidal effect grade, B: Scirpus juncoides (Scirpus juncoides [5]): 1 (Herbicidal ratio of 5% or higher and lower than 20%)
Herbicidal effect grade, B: Scirpus juncoides (Scirpus juncoides [6]): 0 (Herbicidal ratio of 5% or lower (almost no effect))
Herbicidal effect grade, L: Apera spica-venti (Apera spica-venti [11]): 4 (Herbicidal ratio of 70% or higher and lower than 90%)
Herbicidal effect grade, I: Avena fatua (Avena fatua [8]): 3 (Herbicidal ratio of 40% or higher and lower than 70%)
Herbicidal effect grade, Q: Galium spurium (Galium spurium [9]): 0 (Herbicidal ratio of 5% or lower (almost no effect))
d: soybean, effect on crop (criteria of Test Example 1) (soybean): 0 (Herbicidal ratio of 5% or lower (almost no effect))

COc1cc(Br)cc(F)c1C1=C(O)CC(CC(C)=O)C1=O (centres unmarked) [7-029]
O: Chenopodium album, herbicidal effect (criteria of Test Example 1) (Chenopodium album): 0 (Herbicidal ratio of 5% or lower (almost no effect))
Effect on crop grade, e: wheat (wheat): 0 (Herbicidal ratio of 5% or lower (almost no effect))
Effect on crop grade, g: rapeseed (rapeseed): 0 (Herbicidal ratio of 5% or lower (almost no effect))
f: beet, effect on crop (criteria of Test Example 1) (beet [10]): 0 (Herbicidal ratio of 5% or lower (almost no effect))
Effect on crop grade, f: beet (beet [1]): 0 (Herbicidal ratio of 5% or lower (almost no effect))
R: Veronica persica, herbicidal effect (criteria of Test Example 1) (Veronica persica): 0 (Herbicidal ratio of 5% or lower (almost no effect))
Herbicidal effect grade, H: Echinochloa crus-galli var. crus-galli [2]: 2 (Herbicidal ratio of 20% or higher and lower than 40%)
I: Avena fatua, herbicidal effect (criteria of Test Example 1) (Avena fatua [3]): 3 (Herbicidal ratio of 40% or higher and lower than 70%)
L: Apera spica-venti, herbicidal effect (criteria of Test Example 1) (Apera spica-venti [4]): 3 (Herbicidal ratio of 40% or higher and lower than 70%)
Herbicidal effect grade, N: Amaranthus retroflexus (Amaranthus retroflexus): 0 (Herbicidal ratio of 5% or lower (almost no effect))
Herbicidal effect grade, B: Scirpus juncoides (Scirpus juncoides [5]): 0 (Herbicidal ratio of 5% or lower (almost no effect))
Q: Galium spurium, herbicidal effect (criteria of Test Example 1) (Galium spurium [7]): 0 (Herbicidal ratio of 5% or lower (almost no effect))
Herbicidal effect grade, I: Avena fatua (Avena fatua [8]): 0 (Herbicidal ratio of 5% or lower (almost no effect))
Herbicidal effect grade, Q: Galium spurium (Galium spurium [9]): 0 (Herbicidal ratio of 5% or lower (almost no effect))
